{"source": "patent US11015224B2", "about": "“RAF gene fusions” (THE REGENTS OF THE UNIVERSITY OF MICHIGAN, priority 2010, dated 2021)", "key": {"[1]": {"tested_on": "RWPE cells expressing ESRP1-RAF1", "conditions": "sorafenib (10 μM) or U0126 (1 or 10 μM), FIG. 4a,b", "procedure": "(§1) Cell invasion and proliferation assays. Equal numbers of cells were plated into 96-well plates, and a cell proliferation assay was performed using WST-1 reagent (Roche) following the manufacturer's protocol. For the Boyden chamber Matrigel invasion assay, equal numbers of cells were plated into each Matrigelcoated transwell in the presence of sorafenib or U0126 (Calbiochem) or DMSO (Sigma). Invasion assays were performed as described previously (Kleer, C. G. et al. Proc. Natl. Acad. Sci. USA 100, 11606-11611 (2003); Cao, Q. et al. Oncogene 27, 7274-7284 (2008))."}, "[2]": {"tested_on": "RWPE cells expressing SLC45A3-BRAF", "conditions": "sorafenib (10 μM) or U0126 (1 or 10 μM), FIG. 4a,b", "procedure": "as §1"}, "[3]": {"tested_on": "RWPE cells stably expressing ESRP1-RAF1", "conditions": "sorafenib or U0126 (10 μM), 14 d, FIG. 4c,d", "procedure": "(§2) In vitro soft agar growth. For in vitro growth in soft agar, 2 ml of 0.6% SeaPlaque GTG Agarose (Cambrex) dissolved in complete keratinocyte supplement-free medium (Invitrogen) was poured into six-well dishes. After polymerization, a second layer containing 2 ml of 0.4% agar in complete keratinocyte supplement-free medium, and RWPE cells stably expressing SLC45A3-BRAF or ESRP1-RAF 1 (1×10^4 cells per well) were poured on top. The next day, cells were treated with sorafenib or U0126 (10 μM) in 1 ml of supplement-free keratinocyte medium. Soft-agar assay plates were incubated for 14 d at 37° C. MEK inhibitor (U0126) or sorafenib was changed once a week. Each experimental condition was done in triplicate. On day 14, colonies larger than 40 μm in diameter were counted."}, "[4]": {"tested_on": "RWPE cells stably expressing SLC45A3-BRAF", "conditions": "sorafenib or U0126 (10 μM), 14 d, FIG. 4c,d", "procedure": "as §2"}, "[5]": {"tested_on": "MEK and ERK phosphorylation in RWPE cells expressing ESRP1-RAF1", "conditions": "U0126 (10 μM) for 2 h, FIG. 4e", "procedure": "(§3) MEK-ERK signaling pathway analysis. Stable pooled populations of RWPE cells expressing SLC45A3-BRAF or […] were maintained in supplement-free medium without supplements for 2 h. For MEK inhibitor treatments, U0126 (10 μM) was added in the supplement-free keratinocyte medium for 2 h. MEK and ERK activation was assessed by western blot analysis with antibodies to phospho-MEK or ERK and total MEK or ERK antibodies (Cell Signaling Technologies)."}, "[6]": {"tested_on": "MEK and ERK phosphorylation in RWPE cells expressing SLC45A3-BRAF", "conditions": "U0126 (10 μM) for 2 h, FIG. 4e", "procedure": "as §3"}, "[7]": {"tested_on": "MEK½ and ERK½ phosphorylation in BRAFV600E mutation-positive melanoma cell line SK-MEL-94", "conditions": "SK-MEL-94 control cell line", "procedure": "as §3"}, "[8]": {"tested_on": "DUSP6 or SPRY2 mRNA expression in RWPE cells expressing ESRP1-RAF1", "conditions": "U0126, 10 mM, 2 hours, Keratinocyte-supplement free media, FIG. 11", "procedure": "as §3\n(§4) Real Time PCR validation. Quantitative PCR (QPCR) was performed using Power SYBR Green Mastermix (Applied Biosystems) on an Applied Biosystems StepOnePlus Real-Time PCR System. All oligonucleotide primers were obtained from Integrated DNA Technologies and are listed below. The GAPDH primer was used as a control. All assays were performed and repeated twice and results were plotted as average fold change relative to GAPDH."}, "[9]": {"tested_on": "DUSP6 or SPRY2 mRNA expression in RWPE cells expressing SLC45A3-BRAF", "conditions": "U0126, 10 mM, 2 hours, Keratinocyte-supplement free media, FIG. 11", "procedure": "as §3, §4"}, "[10]": {"tested_on": "RWPE cells overexpressing SLC45A3-BRAF", "conditions": "FIG. 3c", "procedure": "as §1"}, "[11]": {"tested_on": "RWPE cells overexpressing ESRP1-RAF1", "assay": "Cell proliferation assay (WST-1)", "format": "cell-based, human", "conditions": "RWPE cells overexpressing ESRP1-RAF1, FIG. 3d", "text": "Cell invasion and proliferation assays."}, "[12]": {"molecular_target": "BRAFV600E mutation (Homo sapiens, UniProt P15056, V600E)", "sequence (P15056 whole entry V600E)": "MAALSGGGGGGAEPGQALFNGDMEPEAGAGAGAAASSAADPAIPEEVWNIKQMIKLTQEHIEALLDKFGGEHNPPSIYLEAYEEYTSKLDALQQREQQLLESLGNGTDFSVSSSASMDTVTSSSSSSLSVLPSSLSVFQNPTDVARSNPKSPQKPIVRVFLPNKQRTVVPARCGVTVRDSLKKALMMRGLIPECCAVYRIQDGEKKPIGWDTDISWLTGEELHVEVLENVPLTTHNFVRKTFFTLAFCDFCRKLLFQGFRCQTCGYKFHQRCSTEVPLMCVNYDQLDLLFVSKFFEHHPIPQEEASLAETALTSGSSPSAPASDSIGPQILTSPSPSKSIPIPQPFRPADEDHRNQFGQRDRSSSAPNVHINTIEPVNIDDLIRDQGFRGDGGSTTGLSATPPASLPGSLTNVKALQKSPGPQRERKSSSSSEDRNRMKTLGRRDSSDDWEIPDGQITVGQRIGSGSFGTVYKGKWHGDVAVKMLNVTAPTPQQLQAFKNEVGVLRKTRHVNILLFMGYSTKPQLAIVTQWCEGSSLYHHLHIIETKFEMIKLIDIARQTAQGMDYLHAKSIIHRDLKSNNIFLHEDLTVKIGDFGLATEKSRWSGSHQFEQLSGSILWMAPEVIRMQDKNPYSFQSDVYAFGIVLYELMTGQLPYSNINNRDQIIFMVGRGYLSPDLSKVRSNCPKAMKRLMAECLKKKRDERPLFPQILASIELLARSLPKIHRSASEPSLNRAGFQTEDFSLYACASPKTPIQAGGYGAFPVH", "conditions": "Sala et al. 2008; cited from earlier work"}}, "data": [{"smiles": "N#CC(=C(/N)Sc1ccccc1N)/C(C#N)=C(\\N)Sc1ccccc1N", "note": "[U0126]", "values": [{"measurement": "fusion-mediated cell invasion, sensitivity to inhibitor", "setting": "[1]", "value": "sensitive"}, {"measurement": "fusion-mediated cell invasion, sensitivity to inhibitor", "setting": "[2]", "value": "sensitive"}, {"measurement": "anchorage-independent colony growth in soft agar, sensitivity to inhibitor", "setting": "[3]", "value": "sensitive"}, {"measurement": "anchorage-independent colony growth in soft agar, sensitivity to inhibitor", "setting": "[4]", "value": "sensitive"}, {"measurement": "MEK and ERK phosphorylation, sensitivity to inhibitor", "setting": "[5]", "value": "sensitive"}, {"measurement": "MEK and ERK phosphorylation, sensitivity to inhibitor", "setting": "[6]", "value": "sensitive"}, {"measurement": "MEK½ and ERK½ phosphorylation", "setting": "[7]", "value": "decreased"}, {"measurement": "DUSP6 or SPRY2 mRNA expression", "setting": "[8]", "value": "significantly decreases"}, {"measurement": "DUSP6 or SPRY2 mRNA expression", "setting": "[9]", "value": "significantly decreases"}]}, {"smiles": "CNC(=O)c1cc(Oc2ccc(NC(=O)Nc3ccc(Cl)c(C(F)(F)F)c3)cc2)ccn1", "note": "[sorafenib, N-(3-trifluoromethyl-4-chlorophenyl)-N′-(4-(2-methylcarbamoylpyridin-4-yl)oxyphenyl)urea]", "values": [{"measurement": "fusion-mediated cell invasion, sensitivity to inhibitor", "setting": "[1]", "value": "sensitive"}, {"measurement": "fusion-mediated cell invasion, sensitivity to inhibitor", "setting": "[2]", "value": "sensitive"}, {"measurement": "increased cell proliferation, sensitivity to inhibitor", "setting": "[10]", "value": "sensitive"}, {"measurement": "increased cell proliferation, sensitivity to inhibitor", "setting": "[11]", "value": "sensitive"}, {"measurement": "anchorage-independent colony growth in soft agar, sensitivity to inhibitor", "setting": "[3]", "value": "sensitive"}, {"measurement": "anchorage-independent colony growth in soft agar, sensitivity to inhibitor", "setting": "[4]", "value": "sensitive"}]}, {"smiles": "CC(C)S(=O)(=O)Nc1ccc(F)c(C(=O)c2c[nH]c3ncc(-c4cccnc4)cc23)c1F", "note": "[PLX-4032]", "values": [{"measurement": "selectivity for the BRAFV600E mutation", "setting": "[12]", "value": "highly selective"}]}]}
